Experimental data: patent publication US5644059A, “1,4-dihydropyridine derivatives and methods of producing the same” (Fujirebio Inc., priority 1990, dated 1997)

Test system: platelet aggregation
Assay: Test for platelet aggregation-inhibiting activity of rabbit (PAF-induced aggregation in platelet rich plasma)
Assay type: cell-based
Design: dose or concentration left out as unconfirmed
Conditions: rabbit PRP, 37°C, 10 minutes incubation, aggregation by PAF (10 μl); test compound concentration not given
Description: 2. Test for platelet aggregation-inhibiting activity of rabit
A blood of a rabbit (Japanese white; male; 2.5-3.0 kg) was exsanguinated from a carotid of the rabbit, and nine parts of the blood were mixed with one part of a 3.8% aqueous solution of sodium citrate. The mixture was centrifuged at 1100 rpm at 20°C. for 15 minutes. The upper layer is a platelet rich plasma (PRP), and the lower layer was centrifuged at 2500 rpm at 20° C. for 10 minutes, so that a platelet poor plasma (PPP) was obtained.
10 μl of a solution of the compound to be tested was added to 200 μl of PRP, and the mixture was subjected to incubation at 37°C. for 10 minutes. To the mixture was added 10 μl of a platelet activating factor (PAF)(10 mg/ml). The agglutination was measured by Agricometer (NKK, PAT-4A).

| SMILES | Platelet Aggregation-Inhibiting Activity |
| --- | --- |
| CCOC(=O)C1(NC(=O)C2=C(C)NC(C)=C(C(=O)OC)C2c2cccc([N+](=O)[O-])c2)CCCCC1 (stereo not shown) [Example 67, ethyl 1-[N-[1,4-dihydro-2,6-dimethyl-5-methoxycarbonyl-4-(3-nitrophenyl)pyridine-3-carbonyl]amino]cyclohexanecarboxylate] | 33.8% |
| CCOC(=O)C(C)(C)NC(=O)C1=C(C)NC(C)=C(C(=O)OC)C1c1cccc([N+](=O)[O-])c1 (stereo not shown) [Example 68, ethyl 2-[N-[1,4-dihydro-2,6-dimethyl-5-methoxycarbonyl-4-(3-nitrophenyl)pyridine-3-carbonyl]amino]isobutyrate] | 34.1% |
| CCOC(=O)c1ccccc1NC(=O)C1=C(C)NC(C)=C(C(=O)OC)C1c1cccc([N+](=O)[O-])c1 (stereo not shown) [Example 69, ethyl 2-[N-[1,4-dihydro-2,6-dimethy1-5-methoxycarbonyl-4-(3-nitrophenyl)pyridine-3-carbonyl]amino]-benzoate] | 23.3% |
| CCOC(=O)c1nccnc1NC(=O)C1=C(C)NC(C)=C(C(=O)OC)C1c1cccc([N+](=O)[O-])c1 (stereo not shown) [Example 70, ethyl 3-[N-[1,4-dihydro-2,6-dimethyl-5-methoxycarbonyl-4-(3-nitrophenyl)pyridine-3-carbonyl]amino]pyrazine-2-carboxylate] | 27.1% |
| COC(=O)C1=C(C)NC(c2ccccc2)=C(C(=O)N[C@H](C(=O)OC(C)(C)C)C(C)C)C1c1cccc([N+](=O)[O-])c1 (stereo partly shown) [Example 71, t-butyl 2-[N-[1,4-dihydro-6-methyl-5-methoxycarbonyl-4-(3-nitrophenyl)-2-phenylpyridine-3-carbonyl]amino]-3-methylbutylate] | 100% |
| CCOC(=O)C1=C(c2ccccc2)NC(C)=C(C(=O)NCC(=O)OC(C)(C)C)C1c1cccc([N+](=O)[O-])c1 (stereo not shown) [Example 76] | 46.3% |
| COC(=O)C1=C(C)NC(C)=C(C(=O)NCC(=O)OC(C)(C)C)[C@@H]1c1cccc([N+](=O)[O-])c1 [Example 79, (+)-t-butyl (S)-[2-[N-[1,4-dihydro-2,6-dimethyl-5-methoxycarbonyl-4-(3-nitrophenyl)pyridin-3-yl]-carbonyl]amino]acetate] | 100% |
